Assay results reported in patent publication US7384912B2, “Treatment of bone disorders with skeletal anabolic drugs” (Osteotrophin, LLC, priority 2002, dated 2008).
Read-outs that look alike come from different tables or passages of the source. Marks after values point to notes of the source that are not given here. No end group written: not given here.

Experiments:
[1] = tested on: patients with osteoporosis; settings: cited from earlier work
[2] = target: T1, PTH/PTHrP receptors in human renal cortical membranes (RCM) (Homo sapiens, UniProt Q03431); assay: Competition binding of 125I-(Tyr36)hPTHrP-(1-36)NH2 to human renal cortical membranes; settings: human RCM, 30° C., 30 min
T1 sequence (Q03431 27-593): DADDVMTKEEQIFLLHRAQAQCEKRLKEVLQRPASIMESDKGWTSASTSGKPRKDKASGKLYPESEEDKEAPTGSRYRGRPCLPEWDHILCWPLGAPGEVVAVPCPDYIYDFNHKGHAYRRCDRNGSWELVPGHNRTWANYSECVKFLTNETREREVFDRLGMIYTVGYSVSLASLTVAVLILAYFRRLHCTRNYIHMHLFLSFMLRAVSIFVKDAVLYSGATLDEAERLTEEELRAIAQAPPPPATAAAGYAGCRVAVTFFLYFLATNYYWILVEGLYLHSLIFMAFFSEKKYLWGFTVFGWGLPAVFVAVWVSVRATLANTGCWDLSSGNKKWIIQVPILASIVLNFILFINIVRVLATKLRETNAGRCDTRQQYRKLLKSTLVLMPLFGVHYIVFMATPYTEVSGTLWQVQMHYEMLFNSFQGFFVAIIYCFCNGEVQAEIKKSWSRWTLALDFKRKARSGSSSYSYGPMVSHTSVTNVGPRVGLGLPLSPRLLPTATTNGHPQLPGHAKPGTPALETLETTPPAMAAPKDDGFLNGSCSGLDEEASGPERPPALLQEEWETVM
Experimental: All steps were performed in the presence of the following protease inhibitors: aprotinin [10 Kallikrein inhibitor units (KIU/ml], pepstatin (5 μg/ml), leupeptin (45 μg/ml), and phenylmethanesulfanylfluoride (10 μg/ml). Normal human kidney cortex was from four separate nephrectomy specimens removed for localized transitional cell carcinoma, renal cell carcinoma, or benign cysts. Renal function in all individuals was normal as assessed by serum creatinine and pyelography. Membranes were pooled, aliquoted, and stored at −70° C. for later use.
Human RCM were added to a final concentration of 90 μg/ml. […] The incubation time of 30 min was used for subsequent equilibrium binding competition studies.
(§1) Statistical differences were assessed by paired and unpaired two-tailed Student's t test.

[3] = target: T2, PTH/PTHrP receptors in SaOS-2 membranes (Homo sapiens, UniProt Q03431); assay: Competition binding of 125I-(Tyr36)hPTHrP-(1-36)NH2 to SaOS-2 membranes; settings: 30° C., 60 min
T2 sequence (Q03431 27-593): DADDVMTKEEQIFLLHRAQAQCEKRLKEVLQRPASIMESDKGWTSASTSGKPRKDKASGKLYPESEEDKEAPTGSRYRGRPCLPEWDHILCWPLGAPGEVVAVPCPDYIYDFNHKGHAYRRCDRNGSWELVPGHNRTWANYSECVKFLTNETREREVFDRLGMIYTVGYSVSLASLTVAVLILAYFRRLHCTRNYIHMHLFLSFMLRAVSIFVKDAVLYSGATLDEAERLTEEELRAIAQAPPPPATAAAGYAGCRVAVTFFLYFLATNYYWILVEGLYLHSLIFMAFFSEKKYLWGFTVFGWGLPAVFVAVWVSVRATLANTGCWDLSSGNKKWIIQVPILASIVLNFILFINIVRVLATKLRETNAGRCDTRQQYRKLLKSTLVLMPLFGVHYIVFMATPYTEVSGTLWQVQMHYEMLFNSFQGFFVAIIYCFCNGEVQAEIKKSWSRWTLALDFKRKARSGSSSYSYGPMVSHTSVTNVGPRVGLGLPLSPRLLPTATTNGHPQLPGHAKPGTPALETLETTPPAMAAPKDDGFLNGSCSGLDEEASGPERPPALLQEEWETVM
Experimental: Briefly, postconfluent cells in 150 cm^2 flasks were scraped into membrane buffer [10 mM Tris HCl (pH 7.5), 0.2 mM MgCl2, 0.5 mM EGTA, 1 mM dithiothreitol, leupeptin 45 μg/ml, pepstatin 5 μg/ml, aprotinin 10 KIU/ml, and phenylmethane sulfanyl-fluoride 10 μg/ml] at 0° C. Cell disruption was achieved by sonification and the suspension was centrifuged at 13,000×g for 15 min at 4° C. […] The suspension was layered onto a cushion of the membrane buffer containing 45% sucrose and centrifuged at 70,000×g for 30 min at 4° C. […] Protein concentrations were determined by the method of Lowry using BSA as standard.
The binding assay for SaOS-2 membranes was conducted as for human RCM. Membranes were added to a final concentration of 112.5 μg/ml and specific binding reached equilibrium by 60 min at 30° C.

[4] = target: T3, PTH/PTHrP receptors on SaOS-2 intact cells (Homo sapiens, UniProt Q03431); assay: Competition binding of 125I-(Tyr36)hPTHrP-(1-36)NH2 to SaOS-2 intact cells; settings: intact cells, 15° C., 150 min
T3 sequence (Q03431 27-593): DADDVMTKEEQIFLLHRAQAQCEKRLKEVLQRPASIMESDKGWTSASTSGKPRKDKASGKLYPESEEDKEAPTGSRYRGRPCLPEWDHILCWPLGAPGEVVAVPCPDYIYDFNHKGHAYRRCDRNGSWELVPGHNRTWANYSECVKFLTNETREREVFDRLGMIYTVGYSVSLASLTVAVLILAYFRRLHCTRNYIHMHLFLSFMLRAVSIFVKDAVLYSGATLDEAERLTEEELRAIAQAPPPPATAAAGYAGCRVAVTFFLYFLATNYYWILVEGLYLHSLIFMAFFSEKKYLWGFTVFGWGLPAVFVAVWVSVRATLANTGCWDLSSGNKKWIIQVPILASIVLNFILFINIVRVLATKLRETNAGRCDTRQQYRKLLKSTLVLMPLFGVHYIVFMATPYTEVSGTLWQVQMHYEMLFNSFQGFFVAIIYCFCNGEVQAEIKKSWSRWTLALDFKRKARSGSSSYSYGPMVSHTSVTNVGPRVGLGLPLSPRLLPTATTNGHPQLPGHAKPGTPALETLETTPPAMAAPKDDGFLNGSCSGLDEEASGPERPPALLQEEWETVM
Experimental: The medium was changed every other day, and studies were performed at 5-7 days post confluence. Cell numbers were determined using a Coulter counter.
Binding studies were conducted at 15° C. in the presence of chymostatin (100 μg/ml) and bacitracin (200 μg/ml). […] The incubation time of 150 min was therefore used for competitive binding studies.

[5] = tested on: adenylate cyclase in SaOS-2 intact cells; assay: Adenylate cyclase assay in SaOS-2 intact cells; format: cell-based, human; settings: 15° C., 60 min
Experimental: Adenylate cyclase-stimulating activity was examined in confluent SAOS-2 cells as previously described for ROS 17/2.8 cells (Merendino et al., Science 231:388-390, (1986)), with the following modification. The intact cell assay was conducted at 15° C., the same conditions employed for binding to intact SaOS-2 cells (vide supra). […] Dose response curves for each peptide were thus generated using 60 min incubations at 15° C. under binding assay conditions.
as §1

[6] = tested on: ovariectomized (OVX) rats; assay: Bone histomorphometry of the right proximal tibia in ovariectomized rats; format: in vivo, rat; parameters: Trabecular Number Tb.N.: unit not given here; settings: for Apposition Rate MAR / Bone Formation Rate BFR/BS / Mineralizing Surface MS/BS / Osteoclast Surface Oc.PM / Resorbing Surface E.PM / Trabecular Area Tb.A. / Trabecular Number Tb.N. / Trabecular Space Tb.Sp. / Trabecular Thickness Tb.Th.: 40 μg/kg/day s.c. once daily
[7] = tested on: ovariectomized (OVX) rats; assay: Bone mass measurements in ovariectomized rats; format: in vivo, rat; parameters: Left Femur Length: unit not given here; settings: 40 μg/kg/day s.c. once daily
[8] = tested on: ovariectomized (OVX) rats; assay: Biomechanical measures of strength in ovariectomized rats; format: in vivo, rat; settings: 40 μg/kg/day s.c. once daily
[9] = two to three years of administration

## PTH(1-84)
[1]; doses of approximately 40 micrograms
  hypercalcemia, serum calcium: up to 15 mg/dl

## hPTHrP-(37-74) (RATSEVSPNSKPSPNTKNHPVRFGSDDEGRYLTQETNK) [Human PTHrP fragment 37-74 prepared by solid phase synthesis]
[2]
  Binding (IC50) Kidney membranes: did not inhibit binding
[3]
  Binding (IC50) SaOS membranes: did not inhibit binding
[4]
  Binding (IC50) SaOS cells: did not inhibit binding

## CC(C)C[C@H](NC(=O)[C@H](CCCCN)NC(=O)CNC(=O)[C@H](CC(C)C)NC(=O)[C@@H](NC(=O)[C@@H]1CSSC[C@H](N)C(=O)N[C@@H](CO)C(=O)N[C@@H](CC(N)=O)C(=O)N[C@@H](CC(C)C)C(=O)N[C@@H](CO)C(=O)N[C@@H]([C@@H](C)O)C(=O)N1)C(C)C)C(=O)N[C@@H](CO)C(=O)N[C@@H](CCC(N)=O)C(=O)N[C@@H](CCC(=O)O)C(=O)N[C@@H](CC(C)C)C(=O)N[C@@H](Cc1c[nH]cn1)C(=O)N[C@@H](CCCCN)C(=O)N[C@@H](CC(C)C)C(=O)N[C@@H](CCC(N)=O)C(=O)N[C@H](C(=O)N[C@@H](Cc1ccc(O)cc1)C(=O)N1CCC[C@H]1C(=O)N[C@@H](CCCNC(=N)N)C(=O)N[C@H](C(=O)N[C@@H](CC(N)=O)C(=O)N[C@H](C(=O)NCC(=O)N[C@@H](CO)C(=O)NCC(=O)N[C@H](C(=O)N1CCC[C@H]1C(N)=O)[C@@H](C)O)[C@@H](C)O)[C@@H](C)O)[C@@H](C)O [calcitonin]
[1]; [9]
  increase in lumbar spine bone mineral density: ~2%

## AVSEHQLLHDKGKSIQDLRRRIFLQNLIEGVNTAEY-NH2 [(Tyr^36)cPTHrP-(1-36)NH2, (Tyr^36) chicken (c)PTHrP-(1-36)amide]
[2]; read-out: Binding (IC50) Kidney membranes
  IC50: 0.47 ± 0.22 nM
[3]
  IC50: 1.1 ± 0.3 nM

## hPTH-(1-34)
[5]
  EC50: 1.6 nM
[6]; 30 days
  Apposition Rate MAR: 2.4 ± 0.1^c μm/d
  Bone Formation Rate BFR/BS: 1.18 ± 7^a,c μm/d
  Mineralizing Surface MS/BS: 49 ± 2^a,c %
  Osteoclast Surface Oc.PM: 2.3 ± 0.6%
  Resorbing Surface E.PM: 8.6 ± 1.2%
  Trabecular Area Tb.A.: 19 ± 2^a %
  Trabecular Number Tb.N.: 2.3 ± 0.1
  Trabecular Space Tb.Sp.: 367 ± 28^a,c Φm
  Trabecular Thickness Tb.Th.: 81 ± 5^a,c Φm
[6]; 90 days
  Apposition Rate MAR: 3.0 ± 0.1^a,c μm/d
  Bone Formation Rate BFR/BS: 1.23 ± 4^a,c μm/d
  Mineralizing Surface MS/BS: 41 ± 1^a,c %
  Osteoclast Surface Oc.PM: 2.6 ± 0.5%
  Resorbing Surface E.PM: 10.6 ± 1.3^c %
  Trabecular Area Tb.A.: 38 ± 3^a,c %
  Trabecular Number Tb.N.: 2.4 ± 0.2
  Trabecular Space Tb.Sp.: 274 ± 34^a Φm
  Trabecular Thickness Tb.Th.: 158 ± 6^a,c Φm
[6]; 180 days
  Apposition Rate MAR: 3.8 ± 0.7^c μm/d
  Bone Formation Rate BFR/BS: 1.53 ± 28^a,c μm/d
  Mineralizing Surface MS/BS: 40 ± 2^a,c %
  Osteoclast Surface Oc.PM: 2.0 ± 0.4%
  Resorbing Surface E.PM: 6.4 ± 1.5%
  Trabecular Area Tb.A.: 38 ± 3^a,c %
  Trabecular Number Tb.N.: 2.3 ± 0.1
  Trabecular Space Tb.Sp.: 279 ± 29^a Φm
  Trabecular Thickness Tb.Th.: 163 ± 8^a,c Φm
[6]; 90 days of treatment
  bone in the right proximal tibia, photomicrographs: not only restores lost bone but significantly increases trabecular bone volume over Sham
[7]; 30 days
  Left Femur BMC: 0.340 ± 0.011^a,c
  Left Femur BMD: 0.200 ± 0.004^a
  Left Femur Length: 34.9 ± 0.3
  Left Femur X Area: 1.68 ± 0.04^c
  Radius Ash Weight: 60 ± 1^c mg
  Whole Body BMC: 64 ± 3^c
[7]; 90 days
  Left Femur BMC: 0.401 ± 0.010^a,c
  Left Femur BMD: 0.232 ± 0.005^a,c
  Left Femur Length: 35.7 ± 0.2^c
  Left Femur X Area: 1.73 ± 0.03^c
  Radius Ash Weight: 66 ± 1^a,c mg
  Whole Body BMC: 69 ± 3^c
[7]; 180 days
  Left Femur BMC: 0.451 ± 0.012^a,c
  Left Femur BMD: 0.234 ± 0.004^a,c
  Left Femur Length: 35.6 ± 0.3^c
  Left Femur X Area: 1.84 ± 0.04^a,c
  Radius Ash Weight: 72 ± 2^a,c mg
  Whole Body BMC: 71 ± 3^c
[8]; 30 days
  Femur Neck Ultimate Load, (Fu): 139 ± 3^ac N
  Mid-Femur Cortical Thickness (t): 0.64 ± 0.02^ac mm
  Mid-Femur Moment of Inertia (I): 4.5 ± 0.2 mm^4
  Mid-Femur Stiffness (S): 571 ± 13 N/mm
  Mid-Femur Toughness (u): 6.0 ± 0.3^c MJ/m^3
  Mid-Femur Ultimate Load (Fu): 185 ± 6^ac N
  Mid-Femur Ultimate Stress (Su): 229 ± 7 MPa
  Mid-Femur Work to Failure (U): 63 ± 4 mJ
  Mid-Femur Young's Modulus (E): 9.1 ± 0.3 Gpa
[8]; 90 days
  Femur Neck Ultimate Load, (Fu): 146 ± 4^ac N
  Mid-Femur Cortical Thickness (t): 0.71 ± 0.02^ac mm
  Mid-Femur Moment of Inertia (I): 4.5 ± 0.1 mm^4
  Mid-Femur Stiffness (S): 641 ± 14^ac N/mm
  Mid-Femur Toughness (u): 5.7 ± 0.3^a MJ/m^3
  Mid-Femur Ultimate Load (Fu): 209 ± 4^ac N
  Mid-Femur Ultimate Stress (Su): 251 ± 7^ac MPa
  Mid-Femur Work to Failure (U): 62 ± 3^a mJ
[8]; 180 days
  Femur Neck Ultimate Load, (Fu): 147 ± 6^ac N
  Mid-Femur Cortical Thickness (t): 0.89 ± 0.01^ac mm
  Mid-Femur Moment of Inertia (I): 5.4 ± 0.3^ac mm^4
  Mid-Femur Stiffness (S): 814 ± 31^ac N/mm
  Mid-Femur Toughness (u): 5.0 ± 0.3^ac MJ/m^3
  Mid-Femur Ultimate Load (Fu): 241 ± 9^ac N
  Mid-Femur Ultimate Stress (Su): 251 ± 8^ac MPa
  Mid-Femur Work to Failure (U): 61 ± 4^ac mJ
[1]; at three months (Finkelstein et al.)
  increase in urinary hydroxyproline and pyridinolines: approximately 200%
[1]; at three months (Lindsay et al.)
  increase in resorption assessed using urinary NIX: 25%
[1]; multiple studies
  increase in lumbar spine bone mineral density: 10-15%
[1]; one study (Roe et al.)
  increase in lumbar spine trabecular bone density by QCT: ≤ 80%
  increase in spine bone mineral density by DXA: ≤ 30%

## O=C(c1ccc(OCCN2CCCCC2)cc1)c1c(-c2ccc(O)cc2)sc2cc(O)ccc12 [raloxifene]
[1]; [9]
  increase in lumbar spine bone mineral density: ~3%
